Structures can show the parent of a compound that is named as a salt.

Data set [1] deals with rats. Nature of the data set: 28-day study in rats. Type of data set: in vivo, rat. Here is the method:
A 28-day study in rats was also carried out at 0, 50, 500 and 2000 mg/kg/day.

The subject of another data set is PDE1. Nature of the data set: PDE inhibition, similar protocols. The data set is classed as biochemical.
The subject of a further data set is dogs. Nature of the data set: 91-day oral study in dogs. Type of data set: in vivo, dog.
Data set [2] concerns TNF-α secreted by TPA-induced U937 cells. The experiment in a line: TNF-α immunoassay on media of TPA-treated U937 cells. The data set is classed as cell-based. The following applies: cell culture media (FIG. 12). Here is the method: One function of macrophages is to modulate the activity of other inflammatory cells through various cytokine molecules.
TNF-α levels in the cell culture media were determined by using the TNF-α Immunoassay from R&D Systems (Cat. #DTA50) according to the manufacturer's protocol.

Data set [3] concerns rats. The experiment in a line: seven-day dose-range finding study in rats. Type of data set: in vivo, rat. The following applies: 7 days.
Where [4] appears, read: 28 days, 50, 500 and 2000 mg/kg/day.
The mark [5] stands for this setting: 91 days, highest dose group (300 mg/kg/day).

`CC1=C(CC(=O)NCc2ccccc2)c2cc(F)ccc2/C1=C\c1ccncc1` [Example 38, (Z)-5-Fluoro-2-methyl-(4-pyridylidene)-3-(N-benzyl)indenylacetamide Hydrochloride]: the “macroscopic tissue changes at necropsy” value in the data set with rats [1] (28 days) was “No macroscopic tissue changes”. Also, in the data set on rats [1] (28 days, 2000 mg/kg/day), the liver weights entry is reported as “statistically significant increase in liver weights” and the thyroid weights entry was “statistically significant increases in thyroid weights”. Further, in the data set with rats [1] (setting [4]), the “body weight changes, ophthalmoscopic examinations, hematological and blood chemistry values, urinalysis” value is on record as “unremarkable”; the clinical observations result was “no abnormal clinical observations”. For the same compound, in the data set with rats [1] (28 days, generally a small number of animals at 2000 mg/kg/day), the “histopathological evaluation of tissues” value was “traces of follicular cell hypertrophy, increased numbers of mitotic figures (suggestive of possible cell proliferation) in the thyroid gland and mild centrilobular hypertrophy in the liver”. The “liver and thyroid weight increases at the lower doses” value in the data set with rats [1] (28 days, lower doses (50, 500 mg/kg/day)) is recorded as “not statistically significant”. The compound further returned an IC50 in the data set on PDE1 of 3000 nM. For the same compound, the feces observation result with dogs (91 days, 150 and 300 mg/kg/day) is “Orange discoloration of the feces”. For the same compound, the “microscopic alterations (liver)” value in the data set on dogs (91 days, highest dose group) is given as “no microscopic alterations”. Besides, in the data set on dogs (setting [5]), the body weights entry is recorded as “Slightly lowered body weights” and the liver weights result was “increased liver weights”. Moreover, in the data set on dogs (oral, 91 days), the “route of elimination (suggested by feces colour)” value is listed as “most of Compound 38 was being eliminated via the feces”. Further, the toxicological effects overall entry with dogs (oral, 91 days, 50, 150 and 300 mg/kg/day) is “no toxicological effects”. Besides, the “level of TNF-α secreted” value in data set [2] was “significantly reduced”. The signs of toxicity result in the data set on rats [3] (50 mg/kg/day) is “no observable signs of toxicity”. The treatment-related effects result in the data set with rats [3] (500 mg/kg/day) was “limited to an increase in absolute and relative liver weights in female rats”. The treatment-related effects result with rats [3] (2000 mg/kg/day) is “labored breathing and/or abnormal respiratory sounds, decreased weights gains and food consumption in male rats, and increased liver weights in female rats”. Besides, the “hematology, blood chemistry, microscopic pathology” value in the data set on rats [3] (any dose level (50, 500, 2000 mg/kg/day)) is “No hematological or blood chemistry changes nor any microscopic pathology changes”.

The record behind these values is US6479493B1, “Methods for treatment of type I diabetes” (Cell Pathways, Inc., priority 2001, dated 2002).
